Earlier results as cited in US8758823B2, “Method for obtaining non-water-soluble powders having antimicrobial activity, the powders thus obtained and the antibacterial use thereof” (Poly-Bio, priority 2009, dated 2014).

Tested on: Staphylococcus aureus
Conditions: quaternary ammonium chloride in aqueous solution; AKZO NOBEL guideline formulation

Question: Which “concentration recommended to obtain the same result (reduction greater than 5 Log)” value does the source give for CCCCCCCCCC[N+](C)(C)CCCCCCCCCC.[Cl-] [ARQUAD 210-50, didecyl dimethyl ammonium chloride] here?
Answer: Its value is 12 to 16 ppm.
